Values of other authors in patent US20110059175A9, “ENHANCING SOLUBILITY AND DISSOLUTION RATE OF POORLY SOLUBLE DRUGS” (K.U.LEUVEN RESEARCH AND DEVELOPMENT, priority 2006, published 2011).
Converted amounts (≈) assume the structure as drawn. Where two headings read alike, the source gives them in different places.

Tests used:
[1] = determined; Peeters et al., 2002
[2] = not given; remark: listed apart in the source
[3] = not given; remark: listed apart in the source

For `CCC(C)n1ncn(-c2ccc(N3CCN(c4ccc(OCC5COC(Cn6cncn6)(c6ccc(Cl)cc6Cl)O5)cc4)CC3)cc2)c1=O` (centres unmarked) [Itraconazole], which pKa4 [1] is on record?
Its pKa4 is 4.0.

And the permeability?
The permeability was “adequate”.

What about the “aqueous solubility (S)” value ([2]; neutral pH) of the same compound?
Its value is ~0.001 µg/mL (≈ 0.00142 µM).

What about the “aqueous solubility (S)” value ([2]; pH 1) of the same compound?
Its value is 4 µg/mL (≈ 5.67 µM).

For `NC(=O)N1c2ccccc2C=Cc2ccccc21` [Carbamazepine, 5H-dibenz[b,f]azepine-5-carboxamide], which “solubility in water” value ([2]; water) is on record?
The value was “practically insoluble”.

With `C#C[C@]1(O)CC[C@H]2[C@@H]3CCC4=Cc5oncc5C[C@]4(C)[C@H]3CC[C@@]21C` [Danazol, 17a-Pregna-2,4-dien-20-yno[2,3-d]-isoxazol-17-ol] as the compound, how does the “time at which peak concentrations occur” value ([3]; administered orally) read?
The value was ≤ 2 h.

And the “increase in plasma concentration on doubling the dose” value ([3]; doubling the dose)?
The value was 30-40%.

And the half-life ([3]; in vivo)?
The half-life was 4 to 5 h.
